According to ChEMBL document CHEMBL1154687, “Binding ensemble profiling with photoaffinity labeling (BEProFL) approach: mapping the binding poses of HDAC8 inhibitors” (J Med Chem, 2009):

Biological target: T1, Histone deacetylase 8 (Homo sapiens, UniProt Q9BY41)
T1 sequence (Q9BY41 whole entry): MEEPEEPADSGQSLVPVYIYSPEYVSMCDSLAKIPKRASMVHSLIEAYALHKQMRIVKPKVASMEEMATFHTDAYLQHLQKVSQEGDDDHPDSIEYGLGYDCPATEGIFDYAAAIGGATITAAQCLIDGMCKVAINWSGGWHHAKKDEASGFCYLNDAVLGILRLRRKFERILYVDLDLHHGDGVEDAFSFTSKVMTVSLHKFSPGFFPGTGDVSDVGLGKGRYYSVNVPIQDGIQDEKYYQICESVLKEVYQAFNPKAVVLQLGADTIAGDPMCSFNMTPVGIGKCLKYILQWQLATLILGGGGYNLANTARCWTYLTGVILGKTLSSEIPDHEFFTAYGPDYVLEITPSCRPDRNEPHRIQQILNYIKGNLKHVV
Assay: Inhibition of human recombinant HDAC8 using fluorescent acetylated substrate

IC50 [µM]	Ki [µM]	SMILES
2.71	2.43	[N-]=[N+]=Nc1ccc(-c2csc(NC(=O)CCCCCCC(=O)NO)n2)cc1
7.34	6.59	[N-]=[N+]=NCc1cc(COc2ccc(NC(=O)CCCCCCC(=O)NO)cc2)cc(N=[N+]=[N-])c1
